Experimental data from ChEMBL document CHEMBL1135270, “New highly active taxoids from 9 beta-dihydrobaccatin-9,10-acetals” (2002).
In brackets after ≈: the same amount, converted by molar mass.

Columns and labels:
PC-6 [1] = assay: Growth inhibition of 50% of human small cell lung cancer (PC-6) cell line in MTT assay; format: functional
PC-6 [2] = assay: Growth inhibition of 50% of vincristine-resistant cell line expressing P-glycoprotein (PC-6/VCR) in MTT assay; format: functional; conditions: Homo sapiens

COc1ccc(C2O[C@@H]3C4=C(C)[C@@H](OC(=O)[C@H](O)[C@@H](NC(=O)OC(C)(C)C)c5ccco5)C[C@@](O)([C@@H](OC(=O)c5ccccc5)[C@@H]5[C@]6(OC(C)=O)CO[C@@H]6C[C@H](O)[C@@]5(C)[C@@H]3O2)C4(C)C)cc1 (stereo not given in full)
GI50 (PC-6 [1]): 6.26 ng/mL (≈ 6.82 nM)
GI50 (PC-6 [2]): 9.25 ng/mL (≈ 10.1 nM)

CC(=O)O[C@@]12CO[C@@H]1C[C@H](O)[C@@]1(C)[C@H](O)[C@H](O)C3=C(C)[C@@H](OC(=O)[C@H](O)[C@@H](NC(=O)OC(C)(C)C)c4ccco4)C[C@@](O)([C@@H](OC(=O)c4ccccc4)[C@H]21)C3(C)C
GI50 (PC-6 [1]): 21 ng/mL (≈ 26.3 nM)
GI50 (PC-6 [2]): 422 ng/mL (≈ 528 nM)

CC(=O)O[C@@]12CO[C@@H]1C[C@H](O)[C@@]1(C)[C@@H]3OC(C)(C)O[C@@H]3C3=C(C)[C@@H](OC(=O)[C@H](O)[C@@H](NC(=O)OC(C)(C)C)c4ccco4)C[C@@](O)([C@@H](OC(=O)c4ccccc4)[C@H]21)C3(C)C
GI50 (PC-6 [1]): 0.331 ng/mL (≈ 0.394 nM)
GI50 (PC-6 [2]): 1.88 ng/mL (≈ 2.24 nM)

C=CC1O[C@@H]2C3=C(C)[C@@H](OC(=O)[C@H](O)[C@@H](NC(=O)OC(C)(C)C)c4ccco4)C[C@@](O)([C@@H](OC(=O)c4ccccc4)[C@@H]4[C@]5(OC(C)=O)CO[C@@H]5C[C@H](O)[C@@]4(C)[C@@H]2O1)C3(C)C (stereo not given in full)
GI50 (PC-6 [1]): 0.743 ng/mL (≈ 0.887 nM)
GI50 (PC-6 [2]): 1.27 ng/mL (≈ 1.52 nM)

C=CC1O[C@@H]2C3=C(C)[C@@H](OC(=O)[C@H](O)[C@@H](NC(=O)OC(C)(C)C)c4ccccc4)C[C@@](O)([C@@H](OC(=O)c4ccccc4)[C@@H]4[C@]5(OC(C)=O)CO[C@@H]5C[C@H](O)[C@@]4(C)[C@@H]2O1)C3(C)C (stereo not given in full)
GI50 (PC-6 [1]): 0.365 ng/mL (≈ 0.43 nM)
GI50 (PC-6 [2]): 4.64 ng/mL (≈ 5.47 nM)
